Laboratory results: the supplement of paper PMC10307832

What was measured:
Test in all cases: relative viability (nuclei count vs DMSO), 5 days (fraction); higher = more cells survive
Gemcitabine + Bortezomib = compound: Nc1ccn([C@@H]2O[C@H](CO)[C@@H](O)C2(F)F)c(=O)n1 [Gemcitabine] + CC(C)C[C@H](NC(=O)[C@H](Cc1ccccc1)NC(=O)c1cnccn1)B(O)O [Bortezomib] (partner 0.002 µM)
In short: (§1)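 Each reported value is a median over duplicate plates. It expresses relative viability: treated-well nuclei count divided by vehicle-well nuclei count. Lung cancer cell lines in 1536-well plates were dosed by pin tool a day after seeding, alone with one drug or with a fixed anchor-drug dose plus five library-drug doses (not always all listed) in √10 steps, and nuclei were counted after 5 days.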

Gemcitabine + Lapatinib = compound: Nc1ccn([C@@H]2O[C@H](CO)[C@@H](O)C2(F)F)c(=O)n1 [Gemcitabine] + CS(=O)(=O)CCNCc1ccc(-c2ccc3ncnc(Nc4ccc(OCc5cccc(F)c5)c(Cl)c4)c3c2)o1 [Lapatinib] (partner 2 µM)
In short: as §1

Gemcitabine + Decitabine = compound: Nc1ccn([C@@H]2O[C@H](CO)[C@@H](O)C2(F)F)c(=O)n1 [Gemcitabine] + Nc1ncn([C@H]2C[C@H](O)[C@@H](CO)O2)c(=O)n1 [Decitabine] (partner 2 µM)
In short: as §1

Gemcitabine + AZD7762 = compound: Nc1ccn([C@@H]2O[C@H](CO)[C@@H](O)C2(F)F)c(=O)n1 [Gemcitabine] + NC(=O)Nc1cc(-c2cccc(F)c2)sc1C(=O)N[C@H]1CCCNC1 [AZD7762] (partner 0.2 µM)
In short: as §1

| Cell Line | relative viability (Gemcitabine + Bortezomib; first compound 0.001 µM) | relative viability (Gemcitabine + Bortezomib; first compound 0.003162 µM) | relative viability (Gemcitabine + Bortezomib; first compound 0.01 µM) | relative viability (Gemcitabine + Bortezomib; first compound 0.03162 µM) | relative viability (Gemcitabine + Bortezomib; first compound 0.1 µM) | relative viability (Gemcitabine + Lapatinib; first compound 0.001 µM) | relative viability (Gemcitabine + Lapatinib; first compound 0.003162 µM) | relative viability (Gemcitabine + Lapatinib; first compound 0.01 µM) | relative viability (Gemcitabine + Lapatinib; first compound 0.03162 µM) | relative viability (Gemcitabine + Lapatinib; first compound 0.1 µM) | relative viability (Gemcitabine + Decitabine; first compound 0.001 µM) | relative viability (Gemcitabine + Decitabine; first compound 0.003162 µM) | relative viability (Gemcitabine + Decitabine; first compound 0.01 µM) | relative viability (Gemcitabine + Decitabine; first compound 0.03162 µM) | relative viability (Gemcitabine + Decitabine; first compound 0.1 µM) | relative viability (Gemcitabine + AZD7762; first compound 0.001 µM) | relative viability (Gemcitabine + AZD7762; first compound 0.003162 µM) | relative viability (Gemcitabine + AZD7762; first compound 0.01 µM) | relative viability (Gemcitabine + AZD7762; first compound 0.03162 µM) | relative viability (Gemcitabine + AZD7762; first compound 0.1 µM) |
| --- | --- | --- | --- | --- | --- | --- | --- | --- | --- | --- | --- | --- | --- | --- | --- | --- | --- | --- | --- | --- |
| NCI-H661 | 0.838 | 0.655 | 0.491 | 0.213 | 0.209 | 0.618 | 0.47 | 0.287 | 0.216 | 0.171 | 0.569 | 0.582 | 0.465 | 0.346 | 0.237 |  |  |  |  |  |
| NCI-H1299 | 1.03 | 1.07 | 1 | 0.995 | 1.07 | 0.941 | 1.01 | 0.962 | 0.938 | 0.921 |  |  |  |  |  |  |  |  |  |  |
| NCI-H1395 |  |  |  |  |  | 1.02 | 0.725 | 0.448 | 0.32 | 0.33 | 0.736 | 0.592 | 0.47 | 0.422 | 0.365 | 0.408 | 0.37 | 0.352 | 0.307 | 0.336 |
| NCI-H1563 | 0.93 | 0.965 | 0.851 | 0.608 | 0.537 | 1.01 | 1.19 | 0.901 | 0.704 | 0.612 |  |  |  |  |  |  |  |  |  |  |
| NCI-H1648 |  |  |  |  |  |  |  |  |  |  | 0.515 | 0.443 | 0.442 | 0.315 | 0.293 | 0.686 | 0.551 | 0.401 | 0.3 | 0.279 |
| NCI-H1650 | 0.189 | 0.18 | 0.175 | 0.147 | 0.133 | 0.669 | 0.706 | 0.406 | 0.179 | 0.17 | 0.467 | 0.369 | 0.239 | 0.222 | 0.155 |  |  |  |  |  |
| NCI-H1703 | 0.306 | 0.209 | 0.144 | 0.11 | 0.111 | 0.898 | 0.262 | 0.156 | 0.164 | 0.114 |  |  |  |  |  | 0.118 | 0.104 | 0.105 | 0.0773 | 0.0798 |
| NCI-H1793 |  |  |  |  |  | 1.07 | 0.734 | 0.489 | 0.244 | 0.166 | 0.512 | 0.433 | 0.271 | 0.156 | 0.162 | 0.778 | 0.211 | 0.0841 | 0.161 | 0.0995 |
| NCI-H1944 |  |  |  |  |  | 0.848 | 0.847 | 0.804 | 0.45 | 0.24 | 0.44 | 0.409 | 0.443 | 0.381 | 0.193 | 0.518 | 0.36 | 0.0907 | 0.109 | 0.086 |
| NCI-H2009 | 1.06 | 0.586 | 0.133 | 0.111 | 0.0676 | 0.929 | 0.624 | 0.205 | 0.129 | 0.192 | 0.363 | 0.264 | 0.233 | 0.141 | 0.114 |  |  |  |  |  |
| NCI-H2023 | 1.12 | 1.11 | 0.241 | 0.104 | 0.0584 | 1.04 | 0.99 | 0.424 | 0.127 | 0.0738 | 0.224 | 0.217 | 0.126 | 0.0929 | 0.0689 |  |  |  |  |  |
| NCI-H2170 |  |  |  |  |  | 0.282 | 0.271 | 0.244 | 0.197 | 0.185 | 0.457 | 0.455 | 0.349 | 0.201 | 0.126 | 0.889 | 0.771 | 0.128 | 0.106 | 0.108 |
| NCI-H2228 | 0.98 | 1.06 | 0.281 | 0.198 | 0.126 | 1.06 | 0.827 | 0.207 | 0.109 | 0.148 |  |  |  |  |  |  |  |  |  |  |
| NCI-H2342 |  |  |  |  |  |  |  |  |  |  | 0.694 | 0.65 | 0.532 | 0.537 | 0.337 | 0.473 | 0.382 | 0.333 | 0.235 | 0.374 |
| SK-LU-1 | 1.16 | 0.281 | 0.23 | 0.175 | 0.224 | 0.89 | 0.509 | 0.162 | 0.134 | 0.195 | 0.623 | 0.635 | 0.376 | 0.24 | 0.246 |  |  |  |  |  |
| SK-MES-1 |  |  |  |  |  | 0.499 | 0.468 | 0.295 | 0.201 | 0.203 | 0.387 | 0.264 | 0.168 | 0.172 | 0.152 |  |  |  |  |  |
| SW 900 |  |  |  |  |  |  |  |  |  |  | 0.325 | 0.372 | 0.267 | 0.148 | 0.169 | 0.423 | 0.214 | 0.109 | 0.147 | 0.112 |
| SW 1573 | 1.16 | 0.853 | 0.538 | 0.086 | 0.0926 | 1.07 | 0.994 | 0.681 | 0.148 | 0.082 | 0.529 | 0.158 | 0.113 | 0.0711 | 0.0511 |  |  |  |  |  |
| UMC-11 | 0.979 | 0.693 | 0.677 | 0.669 | 0.158 | 1.04 | 1.06 | 0.98 | 0.879 | 0.208 | 0.57 | 0.417 | 0.518 | 0.37 | 0.311 |  |  |  |  |  |
